This note sets out measurements from patent US20230357447A1, “TUMOR ACTIVATED MULTISPECIFIC ANTIBODIES FOR TARGETING CD28 AND PD-L1 AND METHODS OF USE THEREOF” (Janux Therapeutics, Inc., priority 2022, published 2023).

For the first experiment, the system named is anti-CD28 scFv. Description: Phage binding ELISA (panning) of clonal phage on anti-CD28 scFv, with or without CD28 soluble protein. To be noted: clonal phage supernatant; background (no anti-CD28 scFv signal). The procedure, abridged:
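Wells pre-incubated with blocking buffer plus CD28 soluble protein or blocking buffer alone, then crude clonal phage supernatants added without washing for a short incubation. After washing, bound phage detected with HRP-conjugated anti-M13 antibody.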
In general terms: In an ELISA, binding on a coated surface is turned into a signal by an enzyme label.
As for Phage-380 (MDYCPSYLWHECFA), the “Phage binding ELISA Backgroud signal” value is listed as 0.065.
Still for that read-out and setting: with Phage-381 (MAWCPRILWHQCFN) the figure was 0.113; with Phage-382 (ITWCPTSLWNRCLV), 0.077.
Phage-383 (LAGCQRDLATVCVI): the “Phage binding ELISA Backgroud signal” value is listed as 0.068.
The same measure, in the same setting: the same measure for Phage-384 (IMWCPTSLWNRCVT): 0.104; for Phage-386 (NHWCPTTLWNRCVA): 0.293; for Phage-387 (MDWCPRHLWLECFN): 0.064.
Turning to Phage-388 (MDWCPRFMWNFCFF), the “Phage binding ELISA Backgroud signal” value is 2.200.
For the substance Phage-391 (MDWCPFDMWADCFF), the “Phage binding ELISA Backgroud signal” value came to 0.063.
Same read-out and setting: with Phage-393 (MDWCPRDMWFECFN) the figure was 0.069.
On the same count and under the same terms, with Phage-394 (MDWCPRYMWSDCFF) the figure was 0.082; with Phage-395 (MDWCPKDMWAECFN), 0.083; with Phage-396 (TDWCPRDMWYLCFN), 0.082.
On the same count and under the same terms, the same measure for Phage-397 (MDWCPRAMWDYCFY): 0.123.
As to Phage-398 (MDWCPRNMWNECFF), the “Phage binding ELISA Backgroud signal” value is recorded as 0.095.
Same read-out and setting: with Phage-399 (MDWCPRSMWDSCFN) the figure was 0.332; with Phage-400 (MHWCPTYMWSECFA), 0.070.

Staying with this experiment, now noted: clonal phage supernatant; background signal.
As to Phage-316 (MDWCPRSLWNYCFA), the “Phage binding ELISA Backgroud signal” value is given as 0.067.
As for Phage-317 (MDWCPRHLWHECFT), the “Phage binding ELISA Backgroud signal” value worked out at 0.103.
On the same count and under the same terms, the same measure for Phage-318 (MDWCPMFLWDECFN): 0.132.
On the same count and under the same terms, with Phage-319 (MSWCPRDLWHLCFF) the figure was 0.077.
With Phage-320 (MDWCPTYLWNECFN), the “Phage binding ELISA Backgroud signal” value is 0.120.
Consider Phage-321 (MDWCPRDLWYVCFA), for which the “Phage binding ELISA Backgroud signal” value came to 0.095.
With Phage-322 (MDWCPRHLWIECFN), the “Phage binding ELISA Backgroud signal” value was 0.339.
As to Phage-323 (MDWCPTYLWNVCFA), the “Phage binding ELISA Backgroud signal” value worked out at 0.085.
Consider Phage-324 (MDWCPRHLWYECFS), for which the “Phage binding ELISA Backgroud signal” value worked out at 0.216.
Consider Phage-325 (MDWCPAYLWDECFA), for which the “Phage binding ELISA Backgroud signal” value was 0.096.
On to Phage-326 (MFWCPITLWNECFN), for which the “Phage binding ELISA Backgroud signal” value came out at 0.075.
Still for that read-out and setting: with Phage-327 (MHWCPRDLWHVCFN) the figure was 0.071; with Phage-328 (MDWCPRALWDHCFN), 0.323; with Phage-329 (MDWCPRALWNVCFA), 0.071.
For the substance Phage-330 (MDWCPRFLWDVCFN), the “Phage binding ELISA Backgroud signal” value was 0.100.
In the case of Phage-331 (MDWCPRHLWDECFY), the “Phage binding ELISA Backgroud signal” value was found to be 0.098.
Take Phage-332 (IDWCPRALWDACLA): the “Phage binding ELISA Backgroud signal” value was found to be 0.269.
Take Phage-333 (MDWCPTDLWHECFA): the “Phage binding ELISA Backgroud signal” value came to 0.078.
The same measure, in the same setting: with Phage-334 (MDWCPRYLWDECFS) the figure was 0.069.
On the same count and under the same terms, with Phage-335 (MDWCPRFLWDYCFA) the figure was 0.146; with Phage-336 (MDWCPRDLWNWCFN), 0.139.
On to Phage-337 (MDWCPKPLWHVCFA), for which the “Phage binding ELISA Backgroud signal” value is given as 0.069.
Same read-out and setting: the same measure for Phage-338 (MDWCPRFLWNECFY): 0.143; for Phage-339 (MDWCPRTLWDQCFF): 0.088.
Regarding Phage-340 (MSWCPIDLWSECFA), the “Phage binding ELISA Backgroud signal” value stood at 0.072.
Turning to Phage-341 (MDWCPRHLWDECFN), the “Phage binding ELISA Backgroud signal” value was found to be 0.084.
The same measure, in the same setting: with Phage-342 (MDWCPRNLWHECFA) the figure was 0.067.
On to Phage-343 (MDWCPRDLWTQCFF), for which the “Phage binding ELISA Backgroud signal” value came out at 0.065.
On the same count and under the same terms, with Phage-344 (MDWCPRHLWVHCFS) the figure was 0.096.
Same read-out and setting: the same measure for Phage-345 (MDFCPRFLWHECFN): 0.063; for Phage-346 (MDWCPRHLWHACFS): 0.073.
Still for that read-out and setting: the same measure for Phage-347 (MDWCPLFLWDQCFN): 0.116; for Phage-348 (MAWCPWYLWDECFN): 0.200.
For Phage-349 (LDWCPRHLWALCFN), the “Phage binding ELISA Backgroud signal” value is given as 0.073.
In the case of Phage-350 (MDWCPWFLWNECFN), the “Phage binding ELISA Backgroud signal” value was determined as 0.158.
Same read-out and setting: the same measure for Phage-351 (MDWCPMNLWHECFA): 0.080.
On the same count and under the same terms, the same measure for Phage-352 (MDWCPIHLWYECFN): 0.080.
On the same count and under the same terms, the same measure for Phage-353 (IDWCPLHLWHECYH): 0.067.
On to Phage-354 (MDWCPRYLWLECFN), for which the “Phage binding ELISA Backgroud signal” value is 0.083.
Same read-out and setting: the same measure for Phage-356 (MDWCPMYLWDECFF): 0.082; for Phage-357 (MDWCPRLLWHECFN): 0.071; for Phage-359 (MDWCPRPLWHECFA): 0.063.
On the same count and under the same terms, the same measure for Phage-360 (MDWCPMFLWHECFS): 0.092; for Phage-361 (MHWCPRHLWSECFN): 0.165.
With Phage-362 (MDWCPRILWHECFS), the “Phage binding ELISA Backgroud signal” value worked out at 0.064.
The same measure, in the same setting: the same measure for Phage-363 (MNWCPMHLWAECFN): 0.087.
As to Phage-364 (MDWCPRSLWAQCFY), the “Phage binding ELISA Backgroud signal” value stood at 0.067.
As for Phage-365 (MDWCPSYLWPVCFN), the “Phage binding ELISA Backgroud signal” value is reported as 0.079.
Same read-out and setting: with Phage-366 (MHWCPLYLWDECFY) the figure was 0.153; with Phage-367 (MDWCPSFLWYECFN), 0.063; with Phage-368 (MSWCPPYLWTVCYN), 0.176.
On the same count and under the same terms, the same measure for Phage-369 (MHWCPRDLWYECFA): 0.072.
Regarding Phage-370 (MTWCPAYLWHECFN), the “Phage binding ELISA Backgroud signal” value was found to be 0.086.
For Phage-372 (MDWCPRYLWVDCFA), the “Phage binding ELISA Backgroud signal” value is given as 0.095.
Phage-373 (MDWCPRILWSDCFN): the “Phage binding ELISA Backgroud signal” value is reported as 0.082.
On the same count and under the same terms, the same measure for Phage-374 (MAWCPLDLWDKCFY): 0.079; for Phage-375 (MNWCPRALWHECFL): 0.085; for Phage-376 (MDWCPRHLWTYCFH): 0.109.
Consider Phage-377 (MDWCPFDLWLECFN), for which the “Phage binding ELISA Backgroud signal” value came out at 0.087.
Same read-out and setting: with Phage-378 (MHWCPLHLWNECFA) the figure was 0.065.
As for Phage-379 (MDWCPRNLWAECFS), the “Phage binding ELISA Backgroud signal” value is reported as 0.061.
